These are literature values, as cited in US20040067963A1, “Methods to prevent or ameliorate trauma-related psychological disorders” (University of Florida, priority 2002, published 2004).

The test system of series [1] is patients with combat-related PTSD. To be noted: 301 patients, by week 6 of treatment, normal to upper range of usual antidepressant doses.
Series [2] concerns patients with HRV parameters indicating autonomic dysregulation characteristic of PTSD. To be noted: 16 patients, 20-60 mg of fluoxetine, vs controls.
In another series the test system is PTSD in 53 civilians. To be noted: up to 60 mg/day.
In a further series the test system is outpatients with PTSD. To be noted: 12 week trial, 187 outpatients with PTSD, primarily female victims of sexual assault.

As to `CNCCC(Oc1ccc(C(F)(F)F)cc1)c1ccccc1` (centres unmarked) [fluoxetine], the “total Treatment Outcome PTSD rating scale score, change from baseline vs placebo” value in series [1] was “statistically significant improvement from baseline”. In series [2], the “heart rate variability (HRV)” value is “significantly higher HRV than controls”. Besides, the “effect on symptom severity vs placebo” value in the series on PTSD in 53 civilians (by week 2-4) was “significantly more effect on symptom severity than placebo”. Also, the “effectiveness on most measures, including disability improvement, vs placebo” value with PTSD in 53 civilians (by week 12) is “more effective on most measures”.
With `CN[C@H]1CC[C@@H](c2ccc(Cl)c(Cl)c2)c2ccccc21` [sertraline], in the series on outpatients with PTSD, the “efficacy compared with placebo” value is given as “significant superiority”.
